Here are results for two compounds from patent publication US11000033B2, “Ketone or oxime compound, and herbicide” (NISSAN CHEMICAL CORPORATION, priority 2014, dated 2021).

SMILES strings stand for the structures.

Common to all, as to type: in vivo
The subject of series [1] is Echinochloa crus-galli var. crus-galli. The experiment in a line: Test Example 3: herbicidal effect by foliage application, Wagner pot (symbol H). Conditions: application herbicide amount 320 g/ha. In outline: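 Seeds sown in alluvial soil kept under 0.1–0.5 cm water, greenhouse 25–30 °C; 14 d growth. Leaves treated by small sprayer with water-diluted emulsion at a predetermined rate. Effect graded by set scale, 3 weeks.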

Another series has as its system Setaria viridis. The experiment in a line: Test Example 4: herbicidal effect by soil treatment (symbol G). Conditions: application herbicide amount 320 g/ha. The method, boiled down:
(§1)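 Seeds were sown in sterilized diluvial soil, covered with about 1.5 cm of soil, and the soil surface was sprayed with a water-diluted emulsion of the compound at a predetermined rate. Plants grew in a greenhouse at 25° C. to 30° C.; effects were scored visually 3 weeks after application.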

The test system of series [2] is wheat. Description: Test Example 5: effect on crop by foliage application, plastic box (symbol e). The settings on record: 320 g/ha, 3 weeks after application. In outline: (§2)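 A greenhouse held between 25° C. and 30° C. was used to grow plants sown spot-wise, beneath ~1.5 cm of soil, in boxes of sterilized diluvial soil.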
A further series has as its system Alopecurus myosuroides. Description: Test Example 4: herbicidal effect by soil treatment (symbol J). The settings on record: application herbicide amount 320 g/ha. In outline: as §1
Series [3] concerns wheat. The experiment in a line: Test Example 4: effect on crop by soil treatment (symbol e). Conditions: application herbicide amount 320 g/ha. In outline: (§3)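 Steps: fill box with sterilized diluvial soil; sow seed spot-like; cover with ~1.5 cm soil; grow in greenhouse (25° C. to 30° C.).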
Series [4] deals with corn. Description: Test Example 4: effect on crop by soil treatment (symbol c). The settings on record: application herbicide amount 320 g/ha. In outline: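 Grown at 25° C. to 30° C. in a greenhouse, the crops came from seed sown spot-wise in sterilized diluvial soil under roughly 1.5 cm of covering soil.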
Series [5] relates to corn. Description: Test Example 5: effect on crop by foliage application, plastic box (symbol c). The settings on record: 320 g/ha, 3 weeks after application. The method, boiled down:
as §2

The test system of a further series is Apera spica-venti. Description: Test Example 5: herbicidal effect by foliage application, plastic box (symbol L). The settings on record: 320 g/ha, 3 weeks after application. In outline: (§4)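 Effect is rated 3 weeks after a foliar spray of water-diluted emulsion concentrate at a predetermined herbicide amount. Plants had grown 14 days in a 25° C. to 30° C. greenhouse from seed in sterilized diluvial soil.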

A further series concerns rapeseed. Description: Test Example 5: effect on crop by foliage application, plastic box (symbol g). The settings on record: 320 g/ha, 3 weeks after application. In outline:
as §2

The test system of the next series is rice. Description: Test Example 4: effect on crop by soil treatment (symbol b). The settings on record: application herbicide amount 320 g/ha. In outline:
as §3

Series [6] has as its system Echinochloa crus-galli var. crus-galli. Description: Test Example 4: herbicidal effect by soil treatment (symbol H). Conditions: application herbicide amount 320 g/ha. In outline:
as §1

In a further series the test system is Scirpus juncoides. Description: Test Example 1: herbicidal activity, application before weed generation in submerged conditions (symbol B). Conditions: application herbicide amount 320 g/ha. In outline: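 Compound emulsion was diluted to a set herbicide amount and applied to the water surface on the sowing day, into submerged (4 cm) alluvial-soil pots sown with mixed weed seeds and transplanted 2.5-leaf rice. Pots were held in a 25–30 °C greenhouse, and weeds were scored 0–5 by herbicidal ratio after 3 weeks.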

A further series concerns Lolium multiflorum Lam. The experiment in a line: Test Example 4: herbicidal effect by soil treatment (symbol K). Conditions: application herbicide amount 320 g/ha. The method, boiled down: as §1
The next series deals with Digitaria ciliaris. The experiment in a line: Test Example 5: herbicidal effect by foliage application, plastic box (symbol F). The settings on record: 320 g/ha, 3 weeks after application. The method, boiled down: as §4
The test system of another series is Stellaria media. Description: Test Example 4: herbicidal effect by soil treatment (symbol P). Conditions: application herbicide amount 320 g/ha. The method, boiled down:
as §1

The subject of another series is soybean. The experiment in a line: Test Example 5: effect on crop by foliage application, plastic box (symbol d). Conditions: 320 g/ha, 3 weeks after application. The method, boiled down:
as §2

Consider `CON=C(C)CC1CC(OCC#C[Si](C)(C)C)=C(c2c(C)cc(C)cc2C)C1=O` (centres unmarked) [1-031], for which the “herbicidal effect on H (Echinochloa crus-galli var. crus-galli), grade 0-5” value in series [1] is 3 (Herbicidal ratio of 40% or higher and lower than 70%). Moreover, the “G (Setaria viridis) herbicidal effect grade” value in the series with Setaria viridis is listed as 0 (Herbicidal ratio of 5% or lower (almost no effect)). Also, the “e: wheat, effect on crop grade” value with wheat [2] is listed as 0 (Herbicidal ratio of 5% or lower (almost no effect)). Moreover, in the series on Alopecurus myosuroides, the “J (Alopecurus myosuroides) herbicidal effect grade” value is listed as 0 (Herbicidal ratio of 5% or lower (almost no effect)). In the series with wheat [3], the “e (wheat) effect on crop grade” value is 0 (Herbicidal ratio of 5% or lower (almost no effect)). For the same compound, the “c (corn) effect on crop grade” value in the series with corn [4] is given as 0 (Herbicidal ratio of 5% or lower (almost no effect)). For the same compound, the “c: corn, effect on crop grade” value with corn [5] was 0 (Herbicidal ratio of 5% or lower (almost no effect)). Moreover, the “L: Apera spica-venti, herbicidal effect grade” value in the series on Apera spica-venti is reported as 0 (Herbicidal ratio of 5% or lower (almost no effect)). Besides, the “g: rapeseed, effect on crop grade” value in the series with rapeseed was 3 (Herbicidal ratio of 40% or higher and lower than 70%). Further, the “b (directly sowed rice plant) effect on crop grade” value in the series with rice is 0 (Herbicidal ratio of 5% or lower (almost no effect)). Further, the “H (Echinochloa crus-galli var. crus-galli) herbicidal effect grade” value in series [6] is given as 0 (Herbicidal ratio of 5% or lower (almost no effect)). In addition, in the series with Scirpus juncoides, the “Herbicidal effect grade, B: Scirpus juncoides” value was 4 (Herbicidal ratio of 70% or higher and lower than 90%). In the series on Lolium multiflorum Lam., the “K (Lolium multiflorum Lam.) herbicidal effect grade” value is recorded as 0 (Herbicidal ratio of 5% or lower (almost no effect)). Besides, the “F: Digitaria ciliaris, herbicidal effect grade” value with Digitaria ciliaris was 1 (Herbicidal ratio of 5% or higher and lower than 20%). Also, the “P (Stellaria media) herbicidal effect grade” value in the series on Stellaria media was 0 (Herbicidal ratio of 5% or lower (almost no effect)). The “d: soybean, effect on crop grade” value in the series on soybean is reported as 0 (Herbicidal ratio of 5% or lower (almost no effect)).

In the case of `CC(CC1CC(O)=C(c2c(C)cc(C)cc2C)C1=O)=NOCC=CCl` (centres unmarked) [1-056], the “herbicidal effect on H (Echinochloa crus-galli var. crus-galli), grade 0-5” value in series [1] is 5 (Herbicidal ratio of 90% or more (almost completely withered)). For the same compound, in the series with Setaria viridis, the “G (Setaria viridis) herbicidal effect grade” value is 5 (Herbicidal ratio of 90% or more (almost completely withered)). The “e: wheat, effect on crop grade” value in the series on wheat [2] is listed as 5 (Herbicidal ratio of 90% or more (almost completely withered)). Moreover, in the series on Alopecurus myosuroides, the “J (Alopecurus myosuroides) herbicidal effect grade” value is 5 (Herbicidal ratio of 90% or more (almost completely withered)). For the same compound, the “e (wheat) effect on crop grade” value in the series on wheat [3] was 5 (Herbicidal ratio of 90% or more (almost completely withered)). Also, in the series with corn [4], the “c (corn) effect on crop grade” value was 3 (Herbicidal ratio of 40% or higher and lower than 70%). The “c: corn, effect on crop grade” value in the series on corn [5] was 4 (Herbicidal ratio of 70% or higher and lower than 90%). The “L: Apera spica-venti, herbicidal effect grade” value in the series on Apera spica-venti is 5 (Herbicidal ratio of 90% or more (almost completely withered)). In addition, in the series with rapeseed, the “g: rapeseed, effect on crop grade” value is 4 (Herbicidal ratio of 70% or higher and lower than 90%). Also, in the series with rice, the “b (directly sowed rice plant) effect on crop grade” value is recorded as 5 (Herbicidal ratio of 90% or more (almost completely withered)). For the same compound, the “H (Echinochloa crus-galli var. crus-galli) herbicidal effect grade” value in series [6] is listed as 5 (Herbicidal ratio of 90% or more (almost completely withered)). Also, in the series with Scirpus juncoides, the “Herbicidal effect grade, B: Scirpus juncoides” value was 5 (Herbicidal ratio of 90% or more (almost completely withered)). In addition, the “K (Lolium multiflorum Lam.) herbicidal effect grade” value with Lolium multiflorum Lam. is reported as 5 (Herbicidal ratio of 90% or more (almost completely withered)). Also, the “F: Digitaria ciliaris, herbicidal effect grade” value with Digitaria ciliaris was 5 (Herbicidal ratio of 90% or more (almost completely withered)). The “P (Stellaria media) herbicidal effect grade” value in the series on Stellaria media is reported as 0 (Herbicidal ratio of 5% or lower (almost no effect)). Moreover, the “d: soybean, effect on crop grade” value with soybean is 4 (Herbicidal ratio of 70% or higher and lower than 90%).
